Assay results published in ChEMBL document CHEMBL1201862, “PubChem BioAssay data set” (2004).
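Where inhibition never reached the appropriate level, the endpoint shown equals the highest concentration tested. Otherwise, values were interpolated linearly from a five-concentration, 48-hour dose response in 96-well plates. GI50 is the concentration that inhibits growth by half.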 Activity calls are given as the source filed them. Cut-off read from the data, not from the text of the source: active = GI50 up to about 1.1 µM and inactive = higher.

What was measured:
Test in all cases: inhibition of tumour cell growth, NCI panel, 48 h
[1] = tested on: HT-29
[2] = tested on: U-251
[3] = tested on: SW-620
[4] = tested on: HOP-62
[5] = tested on: IGROV-1
[6] = tested on: MDA-N
[7] = tested on: Malme-3M
[8] = tested on: 786-0
[9] = tested on: OVCAR-5
[10] = tested on: LOX IMVI
[11] = tested on: SN12C
[12] = tested on: UACC-62
[13] = tested on: NCI-H460
[14] = tested on: SK-OV-3
[15] = tested on: OVCAR-4
[16] = tested on: NCI-H522
[17] = tested on: NCI-H23
[18] = tested on: A549
[19] = tested on: SNB-75

Measured: GI50

Nc1cc(C(=O)O)nc(O)n1
inactive: [1] > 100 µM | [2] > 100 µM | [3] > 100 µM | [4] > 100 µM | [5] > 100 µM | [6] > 100 µM | [7] > 100 µM | [8] > 100 µM | [9] > 100 µM | [10] > 100 µM | [11] > 100 µM | [12] > 100 µM | [13] > 100 µM | [14] > 100 µM | [15] > 100 µM | [16] > 100 µM | [17] > 100 µM | [18] > 100 µM

CCOC(=O)c1c[nH]c(C(=O)C=[N+]=[N-])c1C1CCN(CC)C1=S (stereo unspecified)
inactive: [1] > 100 µM | [2] > 100 µM | [3] > 100 µM | [4] > 100 µM | [19] > 100 µM | [5] > 100 µM | [6] > 100 µM | [7] > 100 µM | [8] > 100 µM | [9] > 100 µM | [12] > 100 µM | [13] 93.3 µM | [14] > 100 µM | [15] > 100 µM | [16] > 100 µM | [17] 99.8 µM | [18] > 100 µM

CC(C)(SCc1ccccc1)C(N)C(=O)O (stereo unspecified)
inactive: [1] > 100 µM | [2] > 100 µM | [3] > 100 µM | [4] > 100 µM | [19] > 100 µM | [5] > 100 µM | [6] > 100 µM | [7] > 100 µM | [8] > 100 µM | [9] > 100 µM | [10] > 100 µM | [11] > 100 µM | [12] > 100 µM | [13] > 100 µM | [15] > 100 µM | [16] > 100 µM | [17] > 100 µM | [18] > 100 µM

COC1=C(OC)C(=O)C(Cc2c(Cl)nc3sc(C)cn23)=C(C)C1=O
inactive: [1] 17.9 µM | [2] 17.9 µM | [3] 21.3 µM | [4] 19.3 µM | [5] 17.8 µM | [6] 15.8 µM | [7] 12.2 µM | [8] 19.9 µM | [9] 18.2 µM | [10] 11.7 µM | [11] 15.9 µM | [12] 11.6 µM | [13] 16.7 µM | [14] 17.5 µM | [15] 7.5 µM | [16] 13.4 µM | [17] 13.7 µM | [18] 17.2 µM

C/C(=C1/N=C(c2ccccc2)OC1=O)c1ccc(C)cc1
inactive: [1] > 100 µM | [2] > 100 µM | [3] > 100 µM | [4] > 100 µM | [5] > 100 µM | [6] > 100 µM | [7] > 100 µM | [8] > 100 µM | [9] > 100 µM | [10] > 100 µM | [11] > 100 µM | [12] > 100 µM | [13] > 100 µM | [14] > 100 µM | [15] > 100 µM | [16] > 100 µM | [17] > 100 µM | [18] > 100 µM

Cc1ccc(C)c(COCCOCn2cc(N3CCOCC3)c(=O)[nH]c2=O)c1
inactive: [2] > 100 µM | [3] > 100 µM | [19] > 100 µM | [5] > 100 µM | [6] > 100 µM | [7] > 100 µM | [8] > 100 µM | [9] > 100 µM | [10] > 100 µM | [11] > 100 µM | [12] > 100 µM | [13] > 100 µM | [14] > 100 µM | [16] > 100 µM | [17] > 100 µM | [18] > 100 µM

O=C(O)c1c(O)c2cc(Br)ccc2oc1=O
inactive: [1] > 100 µM | [2] > 100 µM | [3] > 100 µM | [4] > 100 µM | [19] > 100 µM | [5] > 100 µM | [6] > 100 µM | [7] > 100 µM | [8] > 100 µM | [9] > 100 µM | [10] > 100 µM | [11] > 100 µM | [12] > 100 µM | [13] > 100 µM | [15] > 100 µM | [16] > 100 µM | [17] > 100 µM | [18] > 100 µM

CC(=O)OC1CCC2C3CCc4c(C)ccc(OS(=O)(=O)c5ccccc5)c4C3CCC12C (stereo unspecified)
inactive: [1] 13.1 µM | [2] 13.6 µM | [3] 63.5 µM | [4] 26.4 µM | [5] 38.7 µM | [6] > 100 µM | [7] 50.4 µM | [8] 6.76 µM | [9] 86.1 µM | [10] 7.41 µM | [11] > 100 µM | [12] 26.2 µM | [13] 6.61 µM | [14] 34.2 µM | [15] 21.8 µM | [16] 27.2 µM | [17] 16.3 µM

O=c1[nH]nc(-c2ccccc2)n1/N=C/c1cccnc1
inactive: [1] 93.1 µM | [2] 76.4 µM | [3] > 100 µM | [4] > 100 µM | [19] 50.6 µM | [5] > 100 µM | [6] 34.9 µM | [7] > 100 µM | [8] > 100 µM | [9] 92.5 µM | [10] > 100 µM | [11] 65 µM | [13] 43.8 µM | [16] 61.8 µM | [17] > 100 µM | [18] > 100 µM

C[C@H](CCC(=O)O)[C@H]1CC[C@H]2[C@@H]3[C@H](O)[C@H](O)[C@@H]4C[C@H](O)CC[C@]4(C)[C@H]3CC[C@]12C [HYOCHOLIC ACID]
inactive: [1] > 100 µM | [2] > 100 µM | [3] > 100 µM | [4] > 100 µM | [19] > 100 µM | [5] > 100 µM | [6] > 100 µM | [7] > 100 µM | [8] > 100 µM | [9] > 100 µM | [10] 30.2 µM | [11] > 100 µM | [12] > 100 µM | [13] > 100 µM | [15] > 100 µM | [16] > 100 µM | [17] > 100 µM | [18] > 100 µM

COC(=O)C1(O)c2ccccc2N=C2C(=O)c3ccccc3N21 (stereo unspecified) [METHYLISATOID]
inactive: [1] > 100 µM | [2] > 100 µM | [3] > 100 µM | [4] > 100 µM | [19] > 100 µM | [5] > 100 µM | [6] 15.7 µM | [7] 51.8 µM | [8] > 100 µM | [9] > 100 µM | [10] 59.7 µM | [11] > 100 µM | [13] > 100 µM | [15] > 100 µM | [16] > 100 µM | [17] > 100 µM | [18] > 100 µM
